As usually defined, the GI50 is the concentration at which growth is held to half of that of the control.

Like-named read-outs stand apart in the source and are kept apart here. A value given as a limit tells only on which side of the number the result lay.

Series [1] has as its system MCF10A. In words: Inhibition of cell proliferation in normal cells (MCF10A). The format is cell-based. The procedure: (§1) To evaluate the toxicity of YK-5-252 in cells, the inhibition of cell proliferation was measured in normal cells (MCF10A) and TNBC cells (MDA-MB-231). […] This lack of selectivity can be attributed to the toxicity of YK-5-252.
Series [2] concerns MDA-MB-231. In words: Inhibition of cell proliferation in TNBC cells (MDA-MB-231). The format is cell-based. As to the method: as §1
The test system of another series is tubulin polymerization. In words: Immunofluorescence staining of tubulin in TNBC cells. The class given is cell-based. To be noted: 50 nM, MDA-MB-231. As to the method: To determine the biological effect of YK-5-252, its mechanism of action was determined through immunofluorescence staining.
A short description of series [3]: Fluorescence properties and activation via GSH cleavage. The format is physicochemical. As to conditions: for NIR fluorescence emission: without GSH, excitation of 492 nm. The procedure: FIG. 11 contains emission spectra of compounds described herein.
The fluorescence properties and ability to be activated via GSH cleavage of YK-5-252 were evaluated. DCM-NH2 has a NIR fluorescence emission at 650 nm with an excitation of 492 nm (FIG. 11, panel a). […] This can be due to the loss of electron donating ability of the amine group when attached to the linker. To ascertain the stability of YK-5-252 toward GSH, fluorescence was monitored in the presence of GSH.

In series [4] the test system is MDA-MB-231. In words: FACS analysis of cell population containing released DCM-NH2, TNBC cells. To be noted: treated 48 hours. The class given is cell-based. The procedure: (§2) To further investigate the in vivo activation of YK-5-252, fluorescence-activated cell sorting (FACS) was used. Cells were treated with YK-5-252 for 48 hours. After treatment, FACS analysis was conducted to determine how much of the cell population has DCM-NH2 present. […] HPLC analysis confirmed that CA-4 release is concurrent with the release of DCM-NH2 in a traceless manner (FIG. 14, panels (a-d)). The difference in prodrug cleavage in cancer cells versus normal cells is due to the higher levels of GSH produced in cancer cells.
On the technique in general: Flow cytometry measures light scatter and fluorescence of single cells or particles in a stream.

In series [5] the test system is MCF10A. In words: FACS analysis of cell population containing released DCM-NH2, normal cells. The class given is cell-based. To be noted: treated 48 hours. As to the method:
as §2

Series [6] is described as follows: HPLC analysis of cleavage by glutathione. The format is physicochemical. To be noted: YK-5-252 200 μM; GSH 50 mM. The procedure:
FIG. 14 contains HPLC traces. Panel (a) is a trace of YK-5-252 (200 μM). Panel (b) is a trace of YK-5-252 (200 μM) and glutathione (GSH; 50 mM). Panel (c) is a trace of CA-4 (200 μM). Panel (d) is a trace of DCM (200 μM). […] After treatment with GSH (Panel (b)), the YK-5-252 peak at 10.5 minutes disappeared while two new peaks at 6.8 and 8.6 minutes appears which corresponds to the release of CA-4 and DCM-NH2, respectively (Panels (c) and (d)).
as §2

In a further series the test system is MDA-MB-231 versus MCF10A. In words: Live cell imaging by confocal microscopy. The format is cell-based. To be noted: 1 micromolar, 1 hour. The procedure: FIG. 12, panel (a) contains a confocal microscopy image of MDA-MB-231 cells (triple negative breast cancer cells) treated with YK-5-252 (1 micromolar) for 1 hour. Panel (b) contains a nuclear staining image of the cells with Hoesht dye. Panel (c) contains a merged image of panels (a) and (b). Panel (d) contains a confocal microscopy image of MCF10A (normal breast cells) treated with YK-5-252 (1 micromolar) for 1 hour. Panel (e) contains a nuclear stained image of the cells with Hoescht dye. Panel (f) contains a merged image of panels (d) and (e).
To test the ability of YK-5-252 to selectively release CA-4 in cancer cells, the presence of DCM was monitored through confocal microscopy. […] Also this experiment confirms the utility of YK-5-252 to monitor drug delivery and release in vivo.

Series [7] relates to MCF-7 and MCF-10A cell lines. The experiment in a line: In vitro cytotoxicity assay. The format is cell-based. To be noted: FIGS. 7 and 8. The source says:
FIG. 7 contains plots for use in calculating the IC50 values for YK-5-252 and CA-4 in a MCF-7 cell line.
FIG. 8 contains plots for use in calculating the IC50 values for YK-5-252 and CA-4 in a MCF-10A cell line.
YK-5-252, the designed drug with linked disulfide bond described above, can be cleaved by intracellular glutathione (GSH). Cancer cells have a much higher GSH concentration than normal cells; therefore, this GSH-cleavable prodrug holds promising therapeutic efficacy. Near-infrared photons can deeply penetrate the skin and tissue with minimal damage. […] Due to its NIR fluorescent property, the compound also offers an excellent ability for tracking drug release in vivo.

Turning to `COc1ccc(/C=C\c2cc(OC)c(OC)c(OC)c2)cc1O` [CA-4, combretastatin A-4, reference compound], the GI50 is less than 0.001 nM in the series on MCF10A [1] (MCF10A normal breast cells, read-out: GI50 (Table 1)); less than 0.001 nM with MCF10A [1] (normal cells (MCF10A), read-out: GI50); 2.81 nM in the series with MDA-MB-231 [2] (MDA-MB-231 TNBC cells, after 72 hours of treatment, read-out: GI50 (Table 1)); 28.1 nM with MDA-MB-231 [2] (TNBC cells (MDA-MB-231), read-out: GI50). For the same molecule, the “disruption of tubulin polymerization” value in the series with tubulin polymerization (1 hour) is on record as “completely inhibited tubulin polymerization”.
For the molecule `N#CC(C#N)=C1C=C(/C=C/c2ccc(N)cc2)Oc2ccccc21` [DCM-NH2, (E)-2-(2-(4-aminostyryl)-4H-chromen-4-ylidene)malononitrile], the NIR fluorescence emission in series [3] is recorded as 650 nm.
With `COc1ccc(/C=C\c2cc(OC)c(OC)c(OC)c2)cc1OC(=O)OCCSSCCOC(=O)Nc1ccc(/C=C/C2=CC(=C(C#N)C#N)c3ccccc3O2)cc1` [YK-5-252], the GI50 with MCF10A [1] (Homo sapiens, MCF-10A, MCF10A normal breast cells, read-out: GI50 (Table 1)) was 19.2 nM; with MCF10A [1] (Homo sapiens, MCF-10A, normal cells (MCF10A), read-out: GI50), roughly 19.2 nM; in the series with MDA-MB-231 [2] (Homo sapiens, MDA-MB-231 TNBC cells, after 72 hours of treatment, read-out: GI50 (Table 1)), 40.3 nM; in the series on MDA-MB-231 [2] (Homo sapiens, TNBC cells (MDA-MB-231), read-out: GI50) it was 40.3 nM. Moreover, in the series on MDA-MB-231 [4], the “cells containing DCM-NH2” value is given as 72%. Besides, the “cells containing DCM-NH2 (the fluorophore)” value in the series on MCF10A [5] is “about 5%”. For the same molecule, the results for the “disruption of tubulin polymerization” value in the series with tubulin polymerization (1 hour) and in the series with tubulin polymerization (6 hours) were “did not cause disruption of tubulin polymerization” and “began to disrupt tubulin polymerization”, respectively. Further, the “fluorescence emission in the presence of GSH” value in series [3] (GSH 250 mM, pH 8, DMSO/PBS 50/50) amounted to 650 nm. In [3], the NIR fluorescence emission entry is given as “no NIR emission”. Besides, the “prodrug HPLC peak after treatment with GSH” value in [6] is “disappeared”. In addition, the “fluorescence in TNBC cells versus normal breast cells” value in the series with MDA-MB-231 versus MCF10A is listed as “higher quantities”. Besides, the “toxicity compared with parent drug” value in series [7] is listed as “much less toxic than its linked parent drug”.

Values taken from patent US10023551B2, “Glutathione-cleavable prodrug and methods of use thereof” (GEORGETOWN UNIVERSITY, priority 2015, dated 2018).
